From patent US20100324073A1, “Pyrazolo [1,5-A] Pyrimidine Compounds” (Wyeth LLC, priority 2007, published 2010) come the findings set out here.

Structures are written as SMILES.

Experiment [1] has as its target T1, human LXRβ (Homo sapiens, UniProt P55055).
T1 construct: made in house; host or cells: E. coli
T1 sequence (P55055 1-460): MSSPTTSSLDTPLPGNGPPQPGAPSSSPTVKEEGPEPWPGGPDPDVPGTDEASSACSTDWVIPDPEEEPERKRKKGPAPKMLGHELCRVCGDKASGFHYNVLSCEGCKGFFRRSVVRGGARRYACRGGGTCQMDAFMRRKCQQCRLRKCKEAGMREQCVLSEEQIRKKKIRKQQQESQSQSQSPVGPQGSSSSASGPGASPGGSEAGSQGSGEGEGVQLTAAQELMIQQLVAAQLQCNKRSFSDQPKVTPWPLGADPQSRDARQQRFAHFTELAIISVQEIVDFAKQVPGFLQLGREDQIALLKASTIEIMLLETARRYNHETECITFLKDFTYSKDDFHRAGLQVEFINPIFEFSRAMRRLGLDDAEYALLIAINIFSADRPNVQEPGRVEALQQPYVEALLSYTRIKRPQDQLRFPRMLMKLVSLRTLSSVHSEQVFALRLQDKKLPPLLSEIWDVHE
As to the kind of experiment: Ligand-binding test procedure for human LXRβ. As to conditions: competition with 3H T0901317, biotinylated hLXRβ; read-out: hLXRb binding IC50. The protocol:
I. Ligand-Binding Test Procedure for Human LXRβ.
(§1) Buffer: 100 mM KCl, 100 mM TRIS (pH 7.4 at +4° C.), 8.6% glycerol, 0.1 mM PMSF*, 2 mM MTG*, 0.2% CHAPS (* not used in wash buffer)
Receptor source: E. coli extract from cells expressing biotinylated hLXRβ. Extract was made in a similar buffer as above, but with 50 mM TRIS.
(§2) Washed streptavidin and coated flash plates with wash buffer. Diluted receptor extract to give Bmax˜4000 cpm and add to the wells. Wrapped the plates in aluminum foil and stored them at +4° C. over night.
Made a dilution series in DMSO of the test ligands. Made a 5 nM solution of the radioactive tracer in buffer. Mixed 250 μl diluted tracer with 5 μl of the test ligand from each concentration of the dilution series. Washed the receptor-coated flash plates. Added 200 μl per well of the ligand/radiolabel mixture to the receptor-coated flash plates. Wrapped the plates in aluminum foil and incubate at +4° C. over night.
(§3) Aspirated wells, and wash the flashed plates. Sealed the plate. Measured the remaining radioactivity in the plate.

The subject of experiment [2] is ABCA1 gene. The experiment can be described thus: Quantitative analysis of ABCA1 gene regulation in THP-1 cells. The class given is cell-based. The following applies: Gene regulation by LXR (human), differentiated THP-1 cells; for EC50: 18 hrs, ABCA1 mRNA by real-time PCR; for Agonism ABCA1: LXR agonist reference at 1.0 uM as positive control. The protocol:
III. Quantitative Analysis of ABCA1 Gene Regulation in THP-1 Cells.
The compounds of formula (I) effect on the regulation of the ABCA1 gene was evaluated using the following procedure.
Cell culture: The THP-1 monocytic cell line (ATCC # TIB-202) was obtained from American Type Culture Collection (Manassas, Va.) and cultured in RPMI 1640 medium (Gibco, Carlsbad, Calif.) containing 10% FBS, 2 mM L-glutamine, and 55 uM beta-Mercaptoethanol (BME). Cells were plated in 96-well format at a density of 7.5×10^4 in complete medium containing 50-100 ng/ml phorbal 12,13-dibutyrate (Sigma, St. Louis, Mo.) for three days to induce differentiation into adherent macrophages. Differentiated THP-1 cells were treated with test compounds or ligands dissolved in DMSO (Sigma, D-8779) in culture medium lacking phorbal ester. […] Dose response effects were measured in duplicate, in the range of 0.001 to 30 micromolar concentrations and treated cells were incubated for an additional 18 hrs prior to RNA isolation. Unstimulated cells treated with vehicle were included as negative controls on each plate. An LXR agonist reference, N-(2,2,2-trifluoro-ethyl)-N-[4-(2,2,2-trifluoro-1-hydroxy-1-trifluoromethyl-ethyl)-phenyl]-benzenesulfonamide (Schultz, Joshua R., Genes & Development (2000), 14(22), 2831-2838), was dosed at 1.0 uM and served as a positive control. In antagonist mode, the compound under study is analyzed in the presence of 150 nM GW3965, trifluoromethyl-benzyl)-(2,2-diphenyl-ethyl)-amino]-propoxy]-phenyl)-acetic acid (Collins, J. L., J. Med. Chem. (2000), 45:1963-1966.). Results of antagonist analysis are expressed as % antagonism and IC50 (in μM). RNA isolation and quantitation: Total cellular RNA was isolated from treated cells cultured in 96-well plates using PrepStation 6100 (Applied Biosystems, Foster City, Calif.), according to the manufacturer's recommendations. RNA was resuspended in ribonuclease-free water and stored at −70° C. prior to analysis. RNA concentrations were quantitated with RiboGreen test procedure, #R-11490 (Molecular Probes, Eugene, Oreg.). Gene expression analysis: Gene-specific mRNA quantitation was performed by real-time PCR with the Perkin Elmer Corp. chemistry on an ABI Prism 7700 Sequence detection system (Applied Biosystems, Foster City, Calif.) according to the manufacturer's instructions. Samples (50-100 ng) of total RNA were assayed in duplicate or triplicate in 50 ul reactions using one-step RT-PCR and the standard curve method to estimate specific mRNA concentrations. Sequences of gene-specific primer and probe sets were designed with Primer Express Software (Applied Biosystems, Foster City, Calif.). The human ABCA1 primer and probe sequences are: forward, […], reverse, […], and probe, 6FAM-[…]-TAMRA. RT and PCR reactions were performed according to PE Applied Biosystem's protocol for Taqman Gold RT-PCR or Qiagen's protocl for Quantitect probe RT-PCR. Relative levels of ABCA1 mRNA are normalized using GAPDH mRNA or 18S rRNA probe/primer sets purchased commercially (Applied Biosystems, Foster City, Calif.).
Mean, standard deviation and statistical significance of duplicate evaluations of RNA samples were assessed using ANOVA, one-way analysis of variance using SAS analysis.

The target of experiment [3] is T2, human LXRα (Homo sapiens, UniProt Q13133).
T2 construct: made in house; host or cells: E. coli
T2 sequence (Q13133 1-447): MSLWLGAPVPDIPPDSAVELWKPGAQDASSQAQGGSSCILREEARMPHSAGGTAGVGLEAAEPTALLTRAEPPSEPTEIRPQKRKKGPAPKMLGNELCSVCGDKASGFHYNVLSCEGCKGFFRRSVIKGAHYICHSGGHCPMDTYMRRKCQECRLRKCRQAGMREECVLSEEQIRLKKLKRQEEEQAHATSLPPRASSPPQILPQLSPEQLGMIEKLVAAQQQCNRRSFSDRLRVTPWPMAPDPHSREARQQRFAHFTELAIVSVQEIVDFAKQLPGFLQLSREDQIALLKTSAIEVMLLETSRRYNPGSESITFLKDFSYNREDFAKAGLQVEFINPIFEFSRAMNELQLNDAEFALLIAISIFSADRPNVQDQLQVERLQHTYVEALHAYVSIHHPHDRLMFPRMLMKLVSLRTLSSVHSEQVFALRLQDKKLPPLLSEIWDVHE
The experiment can be described thus: Ligand-binding test procedure for human LXRα. As to conditions: competition with 3H T0901317, biotinylated hLXRα; read-out: hLXRa binding IC50. The protocol: II. Ligand-Binding Test Procedure for Human LXRα.
as §1
Receptor source: E. coli extract from cells expressing biotinylated hLXRα. Extract was made in a similar buffer as above, but with 50 mM TRIS.
as §2
Made a dilution series in DMSO of the test ligands. Made a 5 nM solution of the radioactive tracer in buffer. Mixed […] diluted tracer with 5 μl of the test ligand from each concentration of the dilution series. Washed the receptor-coated flash plates. Added 200 μl per well of the ligand/radiolabel mixture to the receptor-coated flash plates. Wrapped the plates in aluminum foil and incubate at +4° C. over night.
as §3

For the molecule `CS(=O)(=O)c1cccc(Oc2cccc(-c3c(Cc4ccccc4)nn4c(C(F)(F)F)ccnc34)c2)c1` [Example 5, 2-benzyl-3-{3-[3-(methylsulfonyl)phenoxy]phenyl}-7-(trifluoromethyl)pyrazolo[1,5-a]pyrimidine], the IC50 in experiment [1] came to 2.4 nM. Also, in experiment [2], the response was half-maximal at 115 nM (EC50) and the “Agonism ABCA1” value came to 98%. The IC50 in experiment [3] turned out to be 61.6 nM.
For `CCS(=O)(=O)c1cccc(Oc2cccc(-c3c(Cc4ccccc4)nn4c(C(F)(F)F)ccnc34)c2)c1` [Example 6, 2-benzyl-3-(3-(3-(ethylsulfonyl)phenoxy)phenyl)-7-(trifluoromethyl)pyrazolo[1,5-a]pyrimidine], the half-inhibitory concentration (IC50) in experiment [1] worked out at 5.3 nM; in experiment [3] it was 98.2 nM. In experiment [2], this molecule displayed a half-maximal effective concentration (EC50) of 275 nM. For the same molecule, the “Agonism ABCA1” value in experiment [2] came out at 101%.
In the case of `O=S(=O)(CCCO)c1cccc(Oc2cccc(-c3c(Cc4ccccc4)nn4c(C(F)(F)F)ccnc34)c2)c1` [Example 7, 3-(3-(3-(2-benzyl-7-(trifluoromethyl)pyrazolo[1,5-a]pyrimidin-3-yl)phenoxy)phenylsulfonyl)propan-1-ol], the figures for the IC50 in experiment [1] and in experiment [3] were 3.4 nM and 87.2 nM, respectively. This molecule gave an EC50 in experiment [2] of 724 nM. Besides, the “Agonism ABCA1” value in experiment [2] is reported as 109%.
